From US12186332B2, “Methods for overcoming WNT/beta-catenin anti-cancer resistance in leukemia stem cells” (STOWERS INSTITUTE FOR MEDICAL RESEARCH, priority 2019, dated 2025)

Assays:
[1] = tested on: PD-L1, TIM-3 and CD24 on LSCs; assay: FACS of immune checkpoints on LSCs; assay type: in vivo, mouse; conditions: 3 days post-treatment
From the text: Frequency in BM (top) and frequency of the indicated immune checkpoint within the LSC population (bottom) are shown.

[2] = tested on: leukemia (T-ALL) in Pten:β-cat^Act mice; assay: Long-term survival of treated leukemic mice; assay type: in vivo, mouse
Protocol: Treatment schematic and Kaplan-Meier curves of leukemic mice treated as indicated. Red arrow indicates day 0 in survival curve.
Dashed line indicates day of final [Low]nanoDXR treatment.
Chemotherapy for the animal model consisted of Nelarabine (Selleck) and Dexamethasone (BioVision) administered daily for 5 days consecutively. 43.4 mg/ml Nelarabine was administered intravenously via the tail vain according to the formula: Body Weight (g)×5=volume to inject (μl), which yielded 217 mg/kg. 2.5 mg/ml Dexamethasone was injected intraperitoneally according to the formula: Body Weight (g)×4=volume to inject (μl), yielding 10 mg/kg. […] [Low] NanoDXR treatment used doxorubicin nanoparticles (Tran et al. 2014) administered as a single IV injection once per week on day 1 relative to above treatments using 0.8 mg/kg. Maintenance [Low] NanoDXR consisted of once per week injections of 0.4 mg/kg. Groups combining Nelarabine with Doxorubicin used a single injection containing both drugs. All drugs were solubilized in 45% (2-Hydroxypropyl)-p-cyclodextrin (HBC) or 0.9% NaCl.

[3] = tested on: functional, tumorigenic LSCs; assay: Tumorigenic assay: BM of treated leukemic mice transplanted into NSG recipients; assay type: in vivo, mouse; conditions: [Low]DXR alone; nearly 6 months post-transplant
Protocol: At 12 days post-treatment, BM was harvested from treated mice and transplanted into sub-lethally irradiated NSG recipients. Treatment and transplantation schematic and Kaplan-Meier curves of recipient mice were shown. Red arrow indicates day 0 in survival curve.
The free [Low]DXR treatment group (solid line) from FIG. 5F is shown for comparison (n=30 per group).
Tumorigenic assays were performed by transplanting 0.5, 1.5, or 4.5×10^4 bone marrow cells from treated mice at 12 days post-treatment into 3.25 Gy irradiated NSG recipient mice. 10 recipients were used for each dose from each group. One male and one female donor was used for each group. Leukemia was assessed in mice euthanized due to poor health by analyzing CD45^HiCD^3+ cell frequency. Mice having >20% Blasts in the bone marrow were considered leukemic. NSG and Ptprc mice were originally obtained from The Jackson Laboratory.

[4] = tested on: patient BM with or without chemoresistant pS^552-β-cat^+ LSCs; assay: 2° PDX recipients treated with low-dose DXR ([Low]nanoDXR); assay type: in vivo, human
Protocol: FIG. 12F is the Kaplan-Meier survival curve for 2° PDX recipients treated with vehicle or [Low]nanoDXR. Bone marrow was harvested from 1° recipients of diagnostic BM, transplanted into a larger set of 2° PDX recipients and treated with [Low] NanoDXR starting at day 14 post-transplant and continuing for up to 10 weeks.
FIG. 12G is the Kaplan-Meier survival curve for 2° PDX recipients treated with vehicle or [Low]nanoDXR. Bone marrow was harvested from 1° recipients of post-chemotherapy BM, transplanted into a larger set of 2° PDX recipients and treated with [Low] NanoDXR starting at day 14 post-transplant and continuing for up to 10 weeks.
Human CD45^+ and human LSC engraftment was determined after succumbing to leukemia or at experimental endpoint. Graphs indicate frequency (%)+Std. Dev.
FIG. 12L is the Kaplan-Meier survival curve for 2° PDX recipients treated with vehicle or [Low]nanoDXR. Bone marrow was harvested from 1° recipients of diagnostic BM (FIG. 12D), transplanted into a larger set of 2° PDX recipients and treated with [Low] NanoDXR starting at day 14 post-transplant and continuing for up to 10 weeks.
FIG. 12M is the Kaplan-Meier survival curve for 2° PDX recipients treated with vehicle or [Low]nanoDXR. Bone marrow was harvested from 1° recipients of diagnostic BM (FIG. 12E), transplanted into a larger set of 2° PDX recipients and treated with [Low] NanoDXR starting at day 14 post-transplant and continuing for up to 10 weeks.
Human CD45^+ and human LSC engraftment was determined after succumbing to leukemia or at experimental endpoint. Graphs indicate frequency (%)+Std. Dev. (N.S.=not significant).
All patient samples were obtained under research ethics board approval with informed consent. Pediatric patient BM was transplanted into NSG mice. When 1° transplant mice succumbed to leukemia, bone marrow was harvested, frozen for later use, and transplanted into a larger set of 2° NSG recipients. […] Health was monitored independently by technicians blinded to any hypothetical outcome. […]

[5] = tested on: Wnt-signaling reporter activity (TCF/Lef:H2B-GFP); assay: TCF/Lef:H2B-GFP reporter mice; assay type: in vivo, mouse; conditions: low-dose DXR (legend: [Low]nanoDXR, 3 hours post-injection)
From the text: Percent of TCF/Lef:H2B-GFP^+ cells for each population are indicated.

pS^552-β-catenin = assay: FACS for pS552-β-catenin in populations from treated leukemic mice; assay type: in vivo, mouse; conditions: [Low]DXR; 4 days post-treatment; LSCs
Protocol: Percent of LSC, HSPC or blast cell population expressing pS^552-β-catenin is indicated for each treatment. Numbers indicate mean±SD; n=3-5 per group.
For FACS analysis using PE-conjugated monoclonal anti-pS552-β-catenin antibody, cells were washed twice after cell surface staining, resuspended in 250ul of BD Fixation/Permeabilization® solution, incubated for 20 minutes at 4°, washed 2× with 1 ml of 1×BD Perm/Wash Buffer®, resuspended with 100 ul 1×BD Perm/Wash Buffer®, added […] anti-pS552-β-catenin antibody per 100 ul solution containing up to 3 million cells, incubated 2 hours on ice with rocking (resuspended every 15 minutes), washed 2 times and resuspended in PBS+2% FBS for analysis. BM from β-cat knockout mouse was harvested at 2-3 weeks post-knockout induction and stained alongside other test samples.

[6] = Pt samples containing chemoresistant pS552-β-cat+ LSCs

COc1cccc2c1C(=O)c1c(O)c3c(c(O)c1C2=O)C[C@@](O)(C(=O)CO)C[C@@H]3O[C@H]1C[C@H](N)[C@H](O)[C@H](C)O1 [DXR, doxorubicin]
LSC populations expressing PD-L1 and CD24 ([1]; [Low]DXR): reduced | TIM-3+ LSCs ([1]; [Low]DXR): reduced | LSC populations expressing PD-L1 and CD24 ([1]; clinical-dose DXR): this reduction was reversed | TIM-3+ LSCs ([1]; clinical-dose DXR): increased substantially | survival compared to vehicle alone ([2]; clinical-dose DXR combined with chemotherapy): significantly reduced survival | improvement of survival ([2]; mouse, in vivo): did not | recipients that remained healthy [3]: 27/30 | leukemia engraftment and LSC frequency compared to vehicle control [4, 6]: reduced leukemia engraftment and LSC frequency | survival compared to vehicle control [4, 6]: significantly improved survival | survival, leukemia engraftment or LSC frequency ([4]; Pt samples lacking chemoresistant pS552-β-cat+ LSCs): no significant difference | Wnt-signaling reporter activity [5]: significantly inhibits | pS552-β-catenin expression (pS^552-β-catenin): substantially reduced
